How the values were obtained:
Experiment in all cases: KINOMEscan competition binding
Conditions in all cases: compound 10.0 µM
[1] = target: RPS6KA4 KD2 (human) (UniProt O75676)
[2] = target: DCLK3 (human) (UniProt Q9C098)
[3] = target: MYLK3 (human) (UniProt Q32MK0)
[4] = target: MKNK2 (human) (UniProt Q9HBH9)
[5] = target: MELK (human) (UniProt Q14680)
[6] = system: KIT (human), P10721 [V559D/V654A]
[7] = target: CSNK2A2 (human) (UniProt P19784)
[8] = target: BMP2K (human) (UniProt Q9NSY1)
[9] = system: EIF2AK4 KD2 (human), Q9P2K8 [S808G]
[10] = target: DAPK1 (human) (UniProt P53355)
[11] = target: TLK1 (human) (UniProt Q9UKI8)
[12] = target: SRPK3 (human) (UniProt Q9UPE1)
[13] = target: ACVR2A (human) (UniProt P27037)
[14] = target: PHKG2 (human) (UniProt P15735)
[15] = target: MAPK8 (human) (UniProt P45983)
[16] = target: MKNK1 (human) (UniProt Q9BUB5)
[17] = target: STK24 (human) (UniProt Q9Y6E0)
[18] = target: CIT (human) (UniProt O14578)
[19] = target: STK11 (human) (UniProt Q15831)
[20] = target: TTK (human) (UniProt P33981)
[21] = target: CSNK2A1 (human) (UniProt P68400)
[22] = target: KIT (human) (UniProt P10721)
[23] = target: GAK (human) (UniProt O14976)
[24] = target: CLK4 (human) (UniProt Q9HAZ1)
[25] = target: SRPK2 (human) (UniProt P78362)
[26] = target: NEK2 (human) (UniProt P51955)
[27] = target: CDK7 (human) (UniProt P50613)
[28] = target: TGFBR2 (human) (UniProt P37173)
[29] = target: PIM2 (human) (UniProt Q9P1W9)
[30] = target: MAP4K2 (human) (UniProt Q12851)
[31] = target: FLT3 (human) (UniProt P36888)
[32] = target: RIOK3 (human) (UniProt O14730)
[33] = target: MAPK15 (human) (UniProt Q8TD08)
[34] = target: BMPR1B (human) (UniProt O00238)
[35] = target: AURKB (human) (UniProt Q96GD4)
[36] = system: KIT (human), P10721 [V559D]
[37] = target: ACVR1 (human) (UniProt Q04771)
[38] = target: TAOK3 (human) (UniProt Q9H2K8)
[39] = target: PIM1 (human) (UniProt P11309)
[40] = target: RIOK2 (human) (UniProt Q9BVS4)
[41] = target: MAP2K3 (human) (UniProt P46734)
[42] = target: TNIK (human) (UniProt Q9UKE5)

MAPK15 (human), sequence (Q8TD08 whole entry, looked up): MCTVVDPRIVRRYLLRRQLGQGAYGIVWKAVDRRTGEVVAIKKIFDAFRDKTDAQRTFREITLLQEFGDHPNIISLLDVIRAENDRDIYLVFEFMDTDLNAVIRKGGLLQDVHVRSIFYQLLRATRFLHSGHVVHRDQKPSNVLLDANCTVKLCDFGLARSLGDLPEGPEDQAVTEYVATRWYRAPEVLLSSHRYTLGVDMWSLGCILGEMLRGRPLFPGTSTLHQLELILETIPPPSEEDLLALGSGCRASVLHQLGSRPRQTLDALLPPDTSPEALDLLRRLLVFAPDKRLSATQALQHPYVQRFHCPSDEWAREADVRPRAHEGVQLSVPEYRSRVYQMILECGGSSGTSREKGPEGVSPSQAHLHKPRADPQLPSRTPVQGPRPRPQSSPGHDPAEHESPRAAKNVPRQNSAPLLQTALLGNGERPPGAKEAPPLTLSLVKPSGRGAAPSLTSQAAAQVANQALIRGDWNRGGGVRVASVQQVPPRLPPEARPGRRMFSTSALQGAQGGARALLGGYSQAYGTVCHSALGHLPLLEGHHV
ACVR1 (human), sequence (Q04771 whole entry, looked up): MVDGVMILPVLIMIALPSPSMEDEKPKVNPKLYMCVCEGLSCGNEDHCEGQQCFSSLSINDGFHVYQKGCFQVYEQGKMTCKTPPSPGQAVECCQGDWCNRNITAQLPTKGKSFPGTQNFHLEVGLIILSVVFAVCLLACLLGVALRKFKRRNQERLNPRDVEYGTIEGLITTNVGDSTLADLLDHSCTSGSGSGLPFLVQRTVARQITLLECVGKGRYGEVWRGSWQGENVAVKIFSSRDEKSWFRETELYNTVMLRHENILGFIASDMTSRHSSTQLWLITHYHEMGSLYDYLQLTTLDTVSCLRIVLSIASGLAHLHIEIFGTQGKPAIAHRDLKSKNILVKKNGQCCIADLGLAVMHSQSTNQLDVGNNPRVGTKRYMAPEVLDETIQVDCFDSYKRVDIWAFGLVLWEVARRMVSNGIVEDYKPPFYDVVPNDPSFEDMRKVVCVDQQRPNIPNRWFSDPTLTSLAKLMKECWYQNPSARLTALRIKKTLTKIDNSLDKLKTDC
CIT (human), sequence (O14578 whole entry, looked up): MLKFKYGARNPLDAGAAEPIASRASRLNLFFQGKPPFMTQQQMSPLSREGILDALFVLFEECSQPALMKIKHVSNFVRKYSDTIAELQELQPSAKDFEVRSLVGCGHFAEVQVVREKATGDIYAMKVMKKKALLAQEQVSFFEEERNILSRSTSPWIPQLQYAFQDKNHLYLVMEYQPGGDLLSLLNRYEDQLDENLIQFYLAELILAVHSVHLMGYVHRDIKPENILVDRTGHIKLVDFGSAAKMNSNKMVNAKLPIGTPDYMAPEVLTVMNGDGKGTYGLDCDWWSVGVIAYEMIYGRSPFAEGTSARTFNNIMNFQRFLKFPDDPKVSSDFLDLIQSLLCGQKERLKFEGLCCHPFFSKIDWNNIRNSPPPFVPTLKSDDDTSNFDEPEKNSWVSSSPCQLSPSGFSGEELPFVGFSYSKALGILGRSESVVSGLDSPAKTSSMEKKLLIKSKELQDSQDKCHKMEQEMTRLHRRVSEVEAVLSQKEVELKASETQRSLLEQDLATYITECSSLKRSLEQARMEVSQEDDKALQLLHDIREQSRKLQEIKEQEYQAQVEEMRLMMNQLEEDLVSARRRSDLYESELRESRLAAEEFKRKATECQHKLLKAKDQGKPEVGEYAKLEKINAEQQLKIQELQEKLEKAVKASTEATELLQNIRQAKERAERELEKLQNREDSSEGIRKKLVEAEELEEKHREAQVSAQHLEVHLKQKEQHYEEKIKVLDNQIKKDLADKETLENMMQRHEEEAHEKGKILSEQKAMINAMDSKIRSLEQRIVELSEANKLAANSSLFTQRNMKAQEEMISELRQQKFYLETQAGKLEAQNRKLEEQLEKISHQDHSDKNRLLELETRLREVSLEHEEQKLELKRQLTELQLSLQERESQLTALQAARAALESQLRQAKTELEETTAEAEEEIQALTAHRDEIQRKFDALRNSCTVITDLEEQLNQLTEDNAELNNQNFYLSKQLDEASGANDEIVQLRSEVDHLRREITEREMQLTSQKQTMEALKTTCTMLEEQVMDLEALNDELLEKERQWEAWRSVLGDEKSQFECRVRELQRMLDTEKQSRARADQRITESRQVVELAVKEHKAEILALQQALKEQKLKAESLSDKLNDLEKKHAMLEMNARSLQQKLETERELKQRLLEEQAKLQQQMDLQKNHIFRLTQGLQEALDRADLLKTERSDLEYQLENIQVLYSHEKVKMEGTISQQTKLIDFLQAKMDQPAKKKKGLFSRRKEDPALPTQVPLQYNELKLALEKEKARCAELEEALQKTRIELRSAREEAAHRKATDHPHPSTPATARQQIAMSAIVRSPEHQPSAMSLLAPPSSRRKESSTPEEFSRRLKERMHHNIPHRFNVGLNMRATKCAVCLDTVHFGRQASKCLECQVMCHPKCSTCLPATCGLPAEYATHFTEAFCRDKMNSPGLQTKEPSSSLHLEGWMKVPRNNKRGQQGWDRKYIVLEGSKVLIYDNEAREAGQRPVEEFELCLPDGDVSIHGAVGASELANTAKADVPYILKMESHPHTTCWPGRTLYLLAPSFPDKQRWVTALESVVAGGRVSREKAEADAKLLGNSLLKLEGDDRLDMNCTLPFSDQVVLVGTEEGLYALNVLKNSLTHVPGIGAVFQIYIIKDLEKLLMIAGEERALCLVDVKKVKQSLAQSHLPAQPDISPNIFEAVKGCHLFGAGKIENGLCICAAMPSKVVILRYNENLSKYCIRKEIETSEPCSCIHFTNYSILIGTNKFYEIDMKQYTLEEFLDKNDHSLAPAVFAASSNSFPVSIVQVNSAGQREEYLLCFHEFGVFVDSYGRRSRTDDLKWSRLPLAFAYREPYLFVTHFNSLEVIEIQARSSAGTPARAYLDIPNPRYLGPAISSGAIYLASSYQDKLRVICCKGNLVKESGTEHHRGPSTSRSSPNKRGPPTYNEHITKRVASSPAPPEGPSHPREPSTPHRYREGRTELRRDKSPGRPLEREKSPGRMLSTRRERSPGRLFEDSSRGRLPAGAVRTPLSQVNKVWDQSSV
BMP2K (human), sequence (Q9NSY1 whole entry, looked up): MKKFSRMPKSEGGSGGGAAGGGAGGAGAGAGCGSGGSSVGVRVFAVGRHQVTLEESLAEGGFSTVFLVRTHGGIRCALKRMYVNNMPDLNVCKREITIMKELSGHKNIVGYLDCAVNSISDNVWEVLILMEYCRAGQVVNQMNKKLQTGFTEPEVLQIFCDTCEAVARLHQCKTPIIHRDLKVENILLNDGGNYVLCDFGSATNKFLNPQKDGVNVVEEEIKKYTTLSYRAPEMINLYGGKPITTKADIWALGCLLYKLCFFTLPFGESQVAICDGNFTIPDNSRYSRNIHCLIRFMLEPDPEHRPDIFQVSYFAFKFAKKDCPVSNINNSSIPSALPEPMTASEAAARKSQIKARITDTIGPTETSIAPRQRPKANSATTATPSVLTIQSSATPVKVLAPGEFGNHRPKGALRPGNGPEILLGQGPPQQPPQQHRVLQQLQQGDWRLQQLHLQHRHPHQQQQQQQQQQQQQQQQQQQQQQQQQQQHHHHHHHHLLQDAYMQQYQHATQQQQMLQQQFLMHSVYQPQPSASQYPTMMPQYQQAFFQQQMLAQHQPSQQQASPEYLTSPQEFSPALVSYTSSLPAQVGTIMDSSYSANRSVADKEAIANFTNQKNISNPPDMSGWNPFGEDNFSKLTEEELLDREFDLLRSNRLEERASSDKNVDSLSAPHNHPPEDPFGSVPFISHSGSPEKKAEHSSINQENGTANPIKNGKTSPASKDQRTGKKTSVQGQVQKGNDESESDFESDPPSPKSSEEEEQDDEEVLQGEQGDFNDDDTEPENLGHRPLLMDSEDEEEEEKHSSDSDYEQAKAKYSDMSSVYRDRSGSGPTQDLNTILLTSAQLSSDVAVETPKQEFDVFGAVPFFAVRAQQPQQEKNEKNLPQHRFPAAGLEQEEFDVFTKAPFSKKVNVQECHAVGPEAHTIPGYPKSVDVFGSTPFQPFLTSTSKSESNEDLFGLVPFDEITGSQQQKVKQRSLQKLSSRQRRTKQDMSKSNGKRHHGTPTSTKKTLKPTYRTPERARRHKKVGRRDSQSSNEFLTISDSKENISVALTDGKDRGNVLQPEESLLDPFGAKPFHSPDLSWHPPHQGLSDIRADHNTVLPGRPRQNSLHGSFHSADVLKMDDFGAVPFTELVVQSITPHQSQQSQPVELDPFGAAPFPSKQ
CLK4 (human), sequence (Q9HAZ1 whole entry, looked up): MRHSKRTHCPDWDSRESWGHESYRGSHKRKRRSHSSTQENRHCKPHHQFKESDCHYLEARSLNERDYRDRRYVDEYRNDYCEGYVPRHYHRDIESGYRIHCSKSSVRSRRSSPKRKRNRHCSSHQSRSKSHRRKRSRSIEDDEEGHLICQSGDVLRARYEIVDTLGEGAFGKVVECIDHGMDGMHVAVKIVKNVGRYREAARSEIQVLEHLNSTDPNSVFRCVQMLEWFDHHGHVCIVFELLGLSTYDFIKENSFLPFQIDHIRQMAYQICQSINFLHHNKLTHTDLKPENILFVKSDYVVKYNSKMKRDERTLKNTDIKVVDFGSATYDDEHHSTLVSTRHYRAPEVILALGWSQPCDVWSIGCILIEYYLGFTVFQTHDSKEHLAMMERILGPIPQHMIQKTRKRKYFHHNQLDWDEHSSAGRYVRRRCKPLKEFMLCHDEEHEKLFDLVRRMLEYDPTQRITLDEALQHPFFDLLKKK
CDK7 (human), sequence (P50613 whole entry, looked up): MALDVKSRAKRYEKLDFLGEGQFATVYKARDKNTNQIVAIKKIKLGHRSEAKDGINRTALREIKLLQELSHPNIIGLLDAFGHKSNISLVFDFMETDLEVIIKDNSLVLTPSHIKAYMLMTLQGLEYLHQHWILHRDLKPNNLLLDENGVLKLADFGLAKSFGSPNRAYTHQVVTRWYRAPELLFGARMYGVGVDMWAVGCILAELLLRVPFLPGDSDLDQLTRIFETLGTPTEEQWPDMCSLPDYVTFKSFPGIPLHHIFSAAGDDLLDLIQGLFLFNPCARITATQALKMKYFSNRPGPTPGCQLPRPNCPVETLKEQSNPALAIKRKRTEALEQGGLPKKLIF

Work on `CN1CCN(c2ccc(C(=O)Nc3ncc4c(n3)N(C)c3ccccc3C(=O)N4C)cc2)CC1` yielded a kinase still bound, per cent of control [1] of 98%, a kinase still bound, per cent of control [2] of 100% and a kinase still bound, per cent of control [3] of 100%. The kinase still bound, per cent of control [4] was 66%, the kinase still bound, per cent of control [5] was 99% and the kinase still bound, per cent of control [6] was 100%. For the same compound, the kinase still bound, per cent of control [7] was 78%, the kinase still bound, per cent of control [8] was 100% and the kinase still bound, per cent of control [9] was 100%. It also gave a kinase still bound, per cent of control [10] of 84%, a kinase still bound, per cent of control [11] of 86% and a kinase still bound, per cent of control [12] of 100%. The kinase still bound, per cent of control [13] was 100%, the kinase still bound, per cent of control [14] was 90% and the kinase still bound, per cent of control [15] was 100%. It also gave a kinase still bound, per cent of control [16] of 100%, a kinase still bound, per cent of control [17] of 100% and a kinase still bound, per cent of control [18] of 100%. For the same compound, the kinase still bound, per cent of control [19] was 100%, the kinase still bound, per cent of control [20] was 95% and the kinase still bound, per cent of control [21] was 100%. For the same compound, the kinase still bound, per cent of control [22] was 74%, the kinase still bound, per cent of control [23] was 100% and the kinase still bound, per cent of control [24] was 100%. The kinase still bound, per cent of control [25] was 100%, the kinase still bound, per cent of control [26] was 100% and the kinase still bound, per cent of control [27] was 74%. The kinase still bound, per cent of control [28] was 100%, the kinase still bound, per cent of control [29] was 100% and the kinase still bound, per cent of control [30] was 100%. It also gave a kinase still bound, per cent of control [31] of 100%, a kinase still bound, per cent of control [32] of 71% and a kinase still bound, per cent of control [33] of 100%. For the same compound, the kinase still bound, per cent of control [34] was 100%, the kinase still bound, per cent of control [35] was 74% and the kinase still bound, per cent of control [36] was 89%. The kinase still bound, per cent of control [37] was 91%, the kinase still bound, per cent of control [38] was 92% and the kinase still bound, per cent of control [39] was 100%. The kinase still bound, per cent of control [40] was 85%, the kinase still bound, per cent of control [41] was 84% and the kinase still bound, per cent of control [42] was 100%.
Work on `COc1cc(N2CCN(C)CC2)ccc1Nc1ncc2c(n1)N(C)c1sccc1C(=O)N2C` yielded a kinase still bound, per cent of control [1] of 13%, a kinase still bound, per cent of control [2] of 18% and a kinase still bound, per cent of control [3] of 86%. The kinase still bound, per cent of control [4] was 24%, the kinase still bound, per cent of control [5] was 70% and the kinase still bound, per cent of control [6] was 91%. The kinase still bound, per cent of control [7] was 52%, the kinase still bound, per cent of control [8] was 98% and the kinase still bound, per cent of control [9] was 82%. The kinase still bound, per cent of control [10] was 58%, the kinase still bound, per cent of control [11] was 74% and the kinase still bound, per cent of control [12] was 67%. The kinase still bound, per cent of control [13] was 100%, the kinase still bound, per cent of control [14] was 46% and the kinase still bound, per cent of control [15] was 86%. The kinase still bound, per cent of control [16] was 77%, the kinase still bound, per cent of control [17] was 72% and the kinase still bound, per cent of control [18] was 85%. It also gave a kinase still bound, per cent of control [19] of 90%, a kinase still bound, per cent of control [20] of 13% and a kinase still bound, per cent of control [21] of 82%. The kinase still bound, per cent of control [22] was 66%, the kinase still bound, per cent of control [23] was 24% and the kinase still bound, per cent of control [24] was 66%. The kinase still bound, per cent of control [25] was 100%, the kinase still bound, per cent of control [26] was 83% and the kinase still bound, per cent of control [27] was 67%. It also gave a kinase still bound, per cent of control [28] of 94%, a kinase still bound, per cent of control [29] of 86% and a kinase still bound, per cent of control [30] of 96%. The kinase still bound, per cent of control [31] was 99%, the kinase still bound, per cent of control [32] was 52% and the kinase still bound, per cent of control [33] was 87%. The kinase still bound, per cent of control [34] was 91%, the kinase still bound, per cent of control [35] was 56% and the kinase still bound, per cent of control [36] was 71%. It also gave a kinase still bound, per cent of control [37] of 94%, a kinase still bound, per cent of control [38] of 13% and a kinase still bound, per cent of control [39] of 66%. The kinase still bound, per cent of control [40] was 100%, the kinase still bound, per cent of control [41] was 39% and the kinase still bound, per cent of control [42] was 55%.
